In patent EP1101496A1, “THERAPEUTIC AGENTS FOR ALLERGIC DISEASES” (FUJI YAKUHIN KOGYO KABUSHIKI KAISHA, priority 1998, dated 2000):

Tests used:
[1] = tested on: IgE-mediated auricle edema; test: Auricle edema in experimental atopic dermatitis model (anti-DNP IgE sensitization, DNFB elicitation); assay type: in vivo, Balb/c mice; details: Compound Nos. 8 and 10 60 mg/kg s.c., prednisolone 10 mg/kg i.p.
Protocol: Intravenous injection of an anti-2,4-dinitrophenol (DNP) antibody (anti-DNP Ab, monoclonal IgE Ab; its antibody titer was 1 : 512 to 1 : 1024 by a rat heterologous passive cutaneous anaphylaxis reaction using a Wister rat) into a tail vein of female Balb/c mice (7-week old, body weight: 17 to 20 g, purchased from JAPAN SLC, Inc.) at a dose of […] per animal raised passive sensitization. Twenty four hours post-sensitization, 0.1% 2,4-dinitrofluorobenzene (DNFB; Nacalai Tesque, Inc.) in ethanol was painted onto both sides of a pair of mouse auricles at a dose of 10 µL per each side for elicitation.
Fresh unsensitized mice were painted with 0.1% DNFB in ethanol onto their ear in the same manner as aforementioned and served as a control group. Not only immediately prior to elicitation but also 1 hour, 5 hours, daily between Days 1 and 14, and on Day 16 post-elicitation, ear thickness was measured using a dial thickness gauge (Peacock Co.). Each degree of auricle edemas was calculated: Auricular Edema (µm)=(Ear Thickness Post-Elicitation, µm) - (Ear Thickness immediately prior to Elicitation, µm) [formula]
Balb/c mice were passively sensitized with anti-DNP IgE Ab in the same manner as in Example 1. Twenty four hours later, 0.1% DNFB in ethanol was painted onto both sides of a pair of mouse auricles at a dose of 10 µL per each side for elicitation.
Immediately prior to elicitation, 1 hour and on Day 1 post-elicitation, auricle thickness was measured in the same manner as in Example 1. Each therapeutic efficacy is recorded as a percent inhibition wherein the "auricle edema (untreated group)" is used as a control. Auricle Edema Inhibition (%) = [ 1 -(Auricle Edema (Treated Group))/(Auricle Edema (Untreated Group))] × 100 (%) [formula]
Mice were sensitized with anti-DNP IgE Ab and then elicited by painting 0.1% DNFB in ethanol onto both sides of a pair of mouse auricles at a dose of 10 µL per each side 24 hours post-sensitization in the same manner as in Example 1. […] Immediately prior to elicitation, and on Day 7 post-elicitation, auricle thickness was similarly measured. Each therapeutic efficacy is recorded as a percent inhibition wherein the auricle edema in the untreated group is used as a control.
Mice were sensitized with anti-DNP IgE Ab and then elicited by painting 0.1% DNFB in ethanol onto both sides of a pair of mouse auricles at a dose of 10 µL per each side 24 hours post-sensitization in the same manner as in Example 1. […] Immediately prior to elicitation, and on Day 7 post-elicitation, auricle thickness was similarly measured. Each therapeutic efficacy is recorded as a percent inhibition wherein the auricle edema (untreated group) is used as a control.
Mice were sensitized with anti-DNP IgE Ab and then elicited by painting 0.1% DNFB in ethanol onto both sides of a pair of mouse auricles at a dose of 10 µL per each side 24 hours post-sensitization in the same manner as in Example 1. […] Immediately prior to elicitation, at 1 and 4 hours and on Days 1, 3 and 7 post-elicitation, auricle thickness was similarly measured. From each auricle edema (µm) based on the auricle thickness immediately prior to elicitation, especially a prophylactically therapeutic efficacy of the test compound was evaluated.
Mice were sensitized with anti-DNP IgE Ab and then elicited by painting 0.1% DNFB in ethanol onto both sides of a pair of mouse auricles at a dose of 10 µL per each side 24 hours post-sensitization in the same manner as in Example 1. A solution of a test metalloproteinase inhibitor (Compound No. 8; 50 µg/ear/dose, twice a day) in ethanol was painted onto both sides of a pair of the mouse auricles 1 hour pre-elicitation, 0.25, 3, 4, 5 and 6 days post-elicitation (5 animals per group). Immediately prior to elicitation, at 0.5, 1 and 4 hours and on Days 1, 3 and 7 post-elicitation, auricle thickness was similarly measured. Each amount of auricle edemas was calculated (average± standard deviation). […]

[2] = Mouse body weight gain (side-effect index); assay type: in vivo, mice; details: average ± standard deviation; once a day Days 0-5; Compound No. 8 or 10 60 mg/kg s.c., prednisolone 10 mg/kg i.p.
Protocol: Next the mice were measured for their body weight.

[3] = tested on: Experimental Bronchial Asthma Model; test: Experimental bronchial asthma model (ovalbumin-sensitized, airway resistance and asthmatic death); assay type: in vivo, Guinea pigs; details: for % Survival: asthmatic death within several minutes after elicitation
Protocol: Guinea pigs (female, Std:Hartley, 3 weeks old, 200 to 250 g) were individually housed in a plastic chamber (width, 200 mm; depth, 300 mm; height, 167 mm). Aqueous ovalbumin (10 mg/mL) was administered to the guinea pigs once a day for sensitization by 10 min. inhalation with a nebulizer (5B, Nippon Shoji K.K.: flow rate, 6 L/min.) at a dose of 10 mg/mL during 8 cosecutive days. On Day 7 after the final sensitization, the guinea pigs were housed in a plastic chamber and inhaled using a nebulizer with a solution of ovalbumin (10 mg/mL) in physiological saline for 1 min. for elicitation (Matsumoto, T., et al., The Journal of Pharmacology and Experimental Therapeutics, 269: 1236-1244, 1994). The number of animals employed in the experiment was set to the extent there are at least 6 as individuals escaping asthmatic death. A solution of a test metalloproteinase inhibitor (Compound No. 8, 15 mg/kg) in water for injection was administered subcutaneously twice, i.e., 24 hours and 2 hours prior to elicitation. Similarly, the solvent alone was also administered to a negative control group. A suspension of prednisolone (10 mg/kg) in 0.5% aqueous methyl cellulose was administered orally twice, i.e., 24 hours and 2 hours prior to elicitation. Similarly, the solvent alone was also administered to another control group.
The evaluation for efficacies was conducted in terms of airway resistance. For this purpose, an apparatus dedicated to the measurement of airway resistance (K.K. Medical Agent) was employed. Measurement includes setting a guinea pig in a test chamber under a not-anesthetized condition, applying sinusoidal pressure waves of 30 Hz components to a part below the neck of the animal from the back side of the chamber, measuring respiratory waves of 30 Hz components leaking through the mouth (volume of 30 Hz air flow passing through the respiratory tract) in front of the neck, and calculating airway resistance mechanically. Measurement was carried out immediately prior to the first drug treatment (24 hours before elicitation), just prior to elicitation, 10 minutes, 1, 2, 4, 6, and 8 hours post-elicitation.
It was visually observed by a person carrying out said test in terms of the appearance of cyanosis or suffocative death (asthmatic death) due to respiratory obstruction.
Guinea pigs were sensitized with ovalbumin and asthma was induced on Day 7 after final sensitization in the same manner as in Example 18. The number of animals employed in the experiment was set to the extent there are at least 6 as individuals escaping asthmatic death (8 to 11 animals/group). In the same manner as in Example 18, the animals were measured for airway resistance mechanically and each percent change (%) in airway resistance was calculated (each value just prior to elicitation was set as 100%). Each percent amelioration in airway resistance was calculated from the percent changes in airway resistance according to the following formula: Amelioration in Airway Resistance (%) = 1 -[((Percent Change in Airway Resistance after Drug-Administration)-(Value just prior to Challenge (100)))/((Percent Change in Airway Resistance after Solvent -Administration)-(Value just prior to Challenge (100)))]× 100 [formula]
A solution of a test metalloproteinase inhibitor (Compound No. 22: 15 mg/kg or 30 mg/kg) in water for injection or the solvent alone as a negative control was administered to each animal subcutaneously twice, i.e., 24 hours and 2 hours prior to elicitation.

[4] = Body weight gain in sensitized mice (experimental atopic dermatitis model); assay type: in vivo; details: painted on auricles twice a day; Compound No. 8 50 µg/ear/dose, prednisolone 5 µg/ear/dose; Days 1, 4 and 7; versus solvent control (ethanol)
Protocol: Experimental atopic dermatitis model mice sensitized in the same manner as in Example 1 were examined for influence on body weight gains.
A solution of a test metalloproteinase inhibitor (Compound No. 8; 50 µg/ear/dose, twice a day) in ethanol or a solution of prednisolone (5 µg/ear/dose, twice a day) in ethanol was administered to mice (5 animals per group) by painting onto both sides of a pair of the auricles, not only one hour prior to elicitation but also 0.25, 3, 4, 5 and 6 days post-elicitation. Each mouse was measured for its body weight not only immediately before the start in painting but also on Days 1, 4 and 7 after the start in painting. Each gain in body weight was calculated and considered to indicate an effect on body weight changes affected by said treatments.

[5] = Compound No. 22 15 mg/kg s.c., prednisolone 10 mg/kg orally
[6] = suffocative death due to cyanosis just after elicitation, Compound No. 8 15 mg/kg s.c., prednisolone 10 mg/kg orally, 24 and 2 hours prior to elicitation

| SMILES | % Inhibition IPR ([1]; auricle edema 1 hour post-elicitation, treatment 24 & 2 hours prior to DNFB-elicitation) [%] | % Inhibition LPR ([1]; auricle edema Day 1 post-elicitation, treatment 24 & 2 hours prior to DNFB-elicitation) [%] | % Inhibition vLPR ([1]; auricle edema Day 7 post-elicitation, daily from 3 to 6 days after DNFB-elicitation) [%] | Body Weight Gain, Day 5 [2] | Body Weight Gain, Day 7 [2] | Body Weight Gain, Day 10 [2] | % Amelioration in Airway Resistance, 1 Hour ([3]; 1 hour after elicitation, Compound No. 22 15 mg/kg s.c., prednisolone 10 mg/kg orally) [%] | % Amelioration in Airway Resistance, 6 Hours ([3]; 6 hours after elicitation, Compound No. 22 15 mg/kg s.c., prednisolone 10 mg/kg orally) [%] | % Amelioration in Airway Resistance, Immediately after Elicitation ([3]; Compound No. 22 15 mg/kg s.c., prednisolone 10 mg/kg orally, 24 and 2 hours prior to elicitation) [%] | cyanosis ([3]; after elicitation, s.c. administration) | % Survival [3, 5] [%] | % Mortality [3, 6] [%] | (Dead Animals)/(Tested Animals) [3, 6] | gain in body weight (FIG. 9) [4] |
| --- | --- | --- | --- | --- | --- | --- | --- | --- | --- | --- | --- | --- | --- | --- |
| CC(=O)O.CNC(=O)[C@H](Cc1ccc(CNC(C)=N)cc1)NC(=O)[C@H](CC(C)C)C(CCCc1ccccc1)C(=O)NO (single isomer, unassigned) [Compound No. 10, N-[4-(N-hydroxyamino)-2(R)-isobutyl-3(R or S)-(3-phenyltrimethylene)succinyl]-L-4'-acetimidoyliminomethylenephenylalanine-N-methylamide 1 acetate] | 38.2 | 39.2 | 44.7 | 1.08± 0.39 | 1.62± 0.26 | 1.40± 0.30 | – | – | – | – | – | – | – | – |
| CC(=O)O.CNC(=O)[C@H](Cc1ccc(NC(=N)N)cc1)NC(=O)[C@@H](CC(=O)NO)CC(C)C [Compound No. 22, N-[4-(N-hydroxyamino)-2(R)-isobutylsuccinyl]-L-4'-guanidophenylalanine-N-methylamide 1 acetate] | – | – | – | – | – | – | 56.4 | 102.2 | 12.3 | moderation in cyanosis is also observed | 88.9 | – | – | – |
| C[C@]12C=CC(=O)C=C1CC[C@@H]1[C@@H]2[C@@H](O)C[C@@]2(C)[C@H]1CC[C@]2(O)C(=O)CO [Prednisolone, prednisolone, reference compound] | – | – | – | 0.00± 0.26 | 0.03± 0.57 | 0.97± 0.47 | – | – | – | – | 75.0 | 22.2 | 2/9 | below that in the solvent control group |
